# Assay results: patent US20190346463A1, “COMPOSITIONS AND METHOD FOR DETERMINING INSULIN RESISTANCE USING NON-ESTERIFIED FATTY ACID ANALYSIS” (The Penn State Research Foundation, priority 2016, published 2019)
# Assay: compartmental model of NEFA trafficking in response to a glucose challenge (frequently sampled intravenous glucose tolerance test, FAs measured by GC-MS)
# Format: in vivo
# Details: greater in IR (p=0.05); mean [95% CI] 55% [14, 76]
# Text: In general the present disclosure involves analysis of NEFA trafficking by determining kinetic parameters that include, but are not necessarily limited to, the fractional rate of NEFA appearance (Ra), the rate of NEFA disappearance (kNEFA), threshold for glucose-induced suppression (tG), and IC50 for glucose inhibition of NEFA production (gIC50). Those skilled in the art will recognize that each of these parameters is known and can be determined using a variety of established approaches. In this regard the presence or absence, qualitative and quantitative amounts of, and kinetic parameters for one or more NEFAs in a biological sample can be sample determined using, for example, chromatographic methods, such as column chromatography, including High Performance Liquid Chromatography (HPLC) and gas chromatography, and spectroscopy methods including mass spectrometry, nuclear magnetic resonance spectroscopy, infrared spectroscopy, positron emission tomography and other approaches, such as those described in “A novel minimal model to describe NEFA kinetics following an intravenous glucose challenge” Ray C. Boston, Peter J. Moate, American Journal of Physiology—Regulatory, Integrative and Comparative Physiology Apr 2008, 294 (4) R1140-R1147. […]
# This Example reflects an ancillary study. […] Six FAs were measured by GC-MS (myristic, palmitic, palmitoleic, stearic, oleic, and linoleic acids). […]
structure (smiles),measurement,value
"CCCCCCCCCCCCCCCCCC(=O)O [stearate, stearic acid]",kNEFA in IR versus healthy subjects,55%
